# Measurements taken from patent US12076329B2, “Compositions and methods for enhancing visual function” (The Regents of the University of California, priority 2020, dated 2024).
# What was measured:
# Assay type in all cases: in vivo, mouse
# [1] = system: rd1 mice expressing SNAP-mGluR2 in ON-BCs; assay: 2-chamber light/dark light aversion test, SNAP-mGluR2 in ON-BCs; settings: in PBS intravitreal
# Protocol: Mouse experiments were conducted under the express approval of the University of California Animal Care and Use Committee, wt mice (C57BL/6J) and rd1 mice (C3H) were purchased from the Jackson Laboratory and housed on a 12-h light/dark cycle with food and water ad libitum. cDNA encoding SNAP-mGluR2 was inserted in an established viral cassette under control of either the human synapsin promoter (hsyn-1) for expression in RGCs or a 4-copy concatemer of the mouse grm6 minimal promoter (4×grm6) for expression in ON-BCs and packaged in the AAV 2/2-4YF capsid. The vector, containing 10^10-10^12 viral genomes was delivered in a 2 µl volume to the vitreous of the rd1 mouse eye via microinjection. rAAV injections were at p30-p60 and in vivo and in vitro experiments at p90-p160. AAVs were produced as previously described.
# The 2-chamber light-dark passive avoidance test was performed. White light (wavelength range) at ˜100 μW cm^2 or either blue light (460/45 nm) or green light (535/50 nm) at 0.5-25 μW cm^2 was mounted above the chamber with homogeneously distributed light.
# Animal movements were tracked using IR sensors on the shuttle box. Time spent in the light and dark chambers was measured and analyzed using Graphic State and Graphic State RT (Coulbourn Instruments).
# Whether ^4×BGAG12,460:SNAP-mGluR2 would also restore light perception in ON-BCs was tested. […]
# [2] = system: rd1 mice expressing SNAP-mGluR2 in ON-BCs; assay: Line pattern recognition (learned aversive association, iPad displays), SNAP-mGluR2 in ON-BCs; settings: in PBS, trained and tested within a week after intravitreal injection
# Protocol: (§1) Modified active avoidance was assayed as previously described^19, using the Coulbourn shuttle box (H10-11M-SC), however, now iPad tablet screens were mounted onto the shuttle cage wall, each displaying one of two images that differed in orientation or distance between two lines but were otherwise of equal shape, size, and light intensity. The aversive image side was paired with a foot shock of 0.7 mA. Upon recall the light patterns were reversed to avoid a bias for location and time spent on each side was recorded. Adaptation was tested by dimming or brightening the display to different intensities.
# As shown above, ^4×BGAG12,460:SNAP-mGluR2 in either RGCs or ON-BCs confers high sensitivity light perception. It was asked whether ^4×BGAG12,460:SNAP-mGluR2 would support patterned vision. The ability of treated and untreated rd1 mice to discriminate between two different line patterns in a learned negative association task was tested. The task is carried out in a 2-chamber arena, where the floor in each chamber is conductive and can apply an independent aversive mild foot shock. […] The mouse was trained for two days, during which a mild foot shock was given in one of the chambers. The line pattern associated with the foot shock was assigned randomly initially but then kept consistent for that animal throughout the 2 days of training. […]
# [3] = system: rd1 mice expressing SNAP-mGluR2 in RGCs; assay: Line pattern recognition (learned aversive association, iPad displays), SNAP-mGluR2 in RGCs; settings: for line pattern recognition in moving displays (lines 1 or 6 cm apart): displays moving at 4 or 8 cm/s; for high-acuity line pattern recognition, 0.5 cm wide lines separated by 0.25 or 0.5 cm: in PBS intravitreal
# Protocol: as §1
# As shown above, ^4×BGAG12,460:SNAP-mGluR2 in either RGCs or ON-BCs confers high sensitivity light perception. It was asked whether ^4×BGAG12,460:SNAP-mGluR2 would support patterned vision. The ability of treated and untreated rd1 mice to discriminate between two different line patterns in a learned negative association task was tested. The task is carried out in a 2-chamber arena, where the floor in each chamber is conductive and can apply an independent aversive mild foot shock. […] The mouse was trained for two days, during which a mild foot shock was given in one of the chambers. The line pattern associated with the foot shock was assigned randomly initially but then kept consistent for that animal throughout the 2 days of training. […] The chambers were cleaned thoroughly before and after each training or test session to remove olfactory clues. The room was kept dark to avoid room reference visual cues. And the aversive and non-aversive cues were switched between the end of the second day of training and the test day to avoid location bias.
# To further assess the restored line pattern recognition, the lines were made thinner and the separation between the lines was reduced.
# The kinetics of onset, decay and recovery of the restored light response are expected to affect the ability to recognize a visual pattern. […] Thus, the speed limit of ^4×BGAG12,460:SNAP-mGluR2 in RGCs is ≥8 cm/s, whereas that of medium wave cone opsin in RGCs is ≤4 cm/s.
smiles,measurement,setting,value
"Nc1nc(OCc2ccc(CNC(=O)CCCC(=O)N[C@H](CCC(=O)N[C@H](CCC(=O)NCCOCCOCCOCCOCCOCCOCCOCCOCCOCCOCCOCCOCCC(=O)NCCNc3ccc(/N=N/c4ccc(NC(=O)CCC[C@@H](C[C@H](N)C(=O)O)C(=O)O)cc4)cc3)C(=O)NCCOCCOCCOCCOCCOCCOCCOCCOCCOCCOCCOCCOCCC(=O)NCCNc3ccc(/N=N/c4ccc(NC(=O)CCC[C@@H](C[C@H](N)C(=O)O)C(=O)O)cc4)cc3)C(=O)N[C@H](CCC(=O)NCCOCCOCCOCCOCCOCCOCCOCCOCCOCCOCCOCCOCCC(=O)NCCNc3ccc(/N=N/c4ccc(NC(=O)CCC[C@@H](C[C@H](N)C(=O)O)C(=O)O)cc4)cc3)C(=O)NCCOCCOCCOCCOCCOCCOCCOCCOCCOCCOCCOCCOCCC(=O)NCCNc3ccc(/N=N/c4ccc(NC(=O)CCC[C@@H](C[C@H](N)C(=O)O)C(=O)O)cc4)cc3)cc2)c2nc[nH]c2n1 [^4×BGAG12,460]",week post-injection by which dark preference disappeared,[1],≤ 3 week
same,light aversion (time in dark chamber),[1]; first week after injection,spent more time in the dark chamber
same,"line pattern recognition, parallel lines spaced 1 versus 6 cm",[2],spent also more time on the side of the non-aversive visual display
same,speed limit of line pattern recognition in moving displays,[3],≥ 8 cm/s
same,line pattern recognition in moving displays (lines 1 or 6 cm apart),[3],performed as well as wildtype animals when the line displays moved at either 4 or 8 cm/s
same,line pattern recognition in moving displays (lines 1 or 6 cm apart),[3]; listed as 4×BGAG,supports line pattern recognition as well as wildtype vision when visual displays move at 8 cm/s
same,"high-acuity line pattern recognition, 0.5 cm wide lines separated by 0.25 or 0.5 cm",[3],enabled the rd1 mice to perform the task and to do so as well as wildtype mice
same,"high-acuity line pattern recognition, 0.5 cm wide lines separated by 0.25 or 0.5 cm",[3]; listed as 4×BGAG,supports line pattern recognition approaching wild-type acuity limit
same,"line pattern recognition, parallel lines spaced 1 versus 6 cm","[3]; in PBS, trained and tested within a week after intravitreal injection",spent more time on the side of the non-aversive visual display
